{"source": "paper PMC7324353", "about": "(European Journal of Medicinal Chemistry, 2020)", "key": {"[1]": {"details": "cited from earlier work"}, "[2]": {"system": "HepaRG", "details": "HepaRG, 50, 100, 1000 and 5000 μM, 6 h, 12 h, 24 h"}, "[3]": {"system": "male CD1 mice", "details": "600 mg/kg, n = 20 mice per group"}, "[4]": {"system": "CD1 male mice", "experiment": "Liver histology and immunohistochemistry", "assay_type": "in vivo, mouse", "details": "for H&E-stained liver sections / apoptotic nuclei (TUNEL) / hepatic tight junctions (ZO-1 staining): 600 mg/kg; for H&E-stained liver sections: CD1 mice"}, "[5]": {"system": "primary human hepatocytes (PHH)", "experiment": "LDH release in primary human hepatocytes", "details": "500 or 1000 μM, 3 h, 6 h, 12 h, in comparison to ApAP"}, "[6]": {"system": "CD1 male mice", "experiment": "In vivo liver function tests and serum creatinine", "set-up": "species or system mouse", "details": "600 mg/kg; for liver function tests (ALT, AST, ALP) in serum: serum after 12 h"}, "[7]": {"system": "primary human hepatocytes (PHH)", "experiment": "Reduced glutathione", "assay_type": "cell-based", "details": "500 or 1000 μM, 3 h, 6 h, 12 h"}, "[8]": {"system": "CD1 mice", "experiment": "NAPQI detection in serum by LC-MS/MS", "assay_type": "in vivo, mouse", "details": "600 mg/kg, ip or po"}, "[9]": {"system": "male Sprague-Dawley rats", "experiment": "Von Frey", "assay_type": "in vivo, rat", "details": "baseline dropped to about 20 after CFA"}, "[10]": {"system": "male CD1 mice", "experiment": "Baker's yeast-induced hyperthermia", "assay_type": "in vivo, mouse", "details": "80 mg/kg po, n = 10, 2 h after drug (6-h time point)"}, "[11]": {"target": "CYP2D6 (Homo sapiens, UniProt P10635)", "sequence (P10635 whole entry)": "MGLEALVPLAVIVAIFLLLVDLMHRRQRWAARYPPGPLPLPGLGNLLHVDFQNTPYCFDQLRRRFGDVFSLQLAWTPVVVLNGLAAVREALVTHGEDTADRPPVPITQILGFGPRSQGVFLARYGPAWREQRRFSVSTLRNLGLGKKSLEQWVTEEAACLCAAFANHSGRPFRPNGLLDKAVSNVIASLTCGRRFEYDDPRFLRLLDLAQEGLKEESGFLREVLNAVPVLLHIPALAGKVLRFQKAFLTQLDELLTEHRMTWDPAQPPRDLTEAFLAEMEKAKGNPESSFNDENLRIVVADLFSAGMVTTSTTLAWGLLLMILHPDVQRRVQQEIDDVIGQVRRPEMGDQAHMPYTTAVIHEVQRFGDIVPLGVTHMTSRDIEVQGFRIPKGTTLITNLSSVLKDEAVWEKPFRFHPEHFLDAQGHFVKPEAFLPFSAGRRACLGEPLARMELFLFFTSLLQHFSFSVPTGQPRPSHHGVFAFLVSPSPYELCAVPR", "experiment": "Vivid CYP450 screening assay, CYP2D6", "assay_type": "biochemical"}, "[12]": {"target": "CYP3A4 (Homo sapiens, UniProt P08684)", "sequence (P08684 whole entry)": "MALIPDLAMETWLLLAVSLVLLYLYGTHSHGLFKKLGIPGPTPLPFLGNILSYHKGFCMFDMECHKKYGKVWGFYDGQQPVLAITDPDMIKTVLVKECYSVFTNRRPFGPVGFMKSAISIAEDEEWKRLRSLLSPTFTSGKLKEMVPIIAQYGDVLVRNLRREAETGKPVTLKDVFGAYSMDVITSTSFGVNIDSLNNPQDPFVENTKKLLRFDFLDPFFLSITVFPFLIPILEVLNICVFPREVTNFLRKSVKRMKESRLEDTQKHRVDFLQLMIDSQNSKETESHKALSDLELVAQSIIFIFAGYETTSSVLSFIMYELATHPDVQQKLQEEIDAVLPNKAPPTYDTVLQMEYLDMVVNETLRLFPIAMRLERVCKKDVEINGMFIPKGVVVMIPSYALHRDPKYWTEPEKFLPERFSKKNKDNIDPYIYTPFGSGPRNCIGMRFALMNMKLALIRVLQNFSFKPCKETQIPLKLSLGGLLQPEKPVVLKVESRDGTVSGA", "details": "titration curves for 2D6 and 3A4; isozyme not given"}}, "note": "Entries after “also recorded” stand apart in the source; their conditions may differ.", "data": [{"smiles": "O=C(CN1C(=O)c2ccccc2S1(=O)=O)Nc1ccc(O)cc1", "note": "[compound 1, N-(4-hydroxyphenyl)-2-(1,1,3-trioxo-1,2-benzothiazol-2-yl)acetamide]", "values": [{"measurement": "hepatotoxicity", "setting": "[1]; compared with ApAP", "result": "considerably decreased"}, {"measurement": "in vivo analgesic profile", "setting": "[1]; compared with ApAP", "result": "maintained the in vivo analgesic profile of ApAP"}, {"measurement": "in vivo metabolism", "setting": "[1]; into the main metabolite 2", "result": "quickly metabolized in vivo"}, {"measurement": "antipyresis", "setting": "[1]; stated in abstract, no reference given", "result": "not antipyretic"}]}, {"smiles": "CNC(=O)c1ccccc1S(=O)(=O)NCC(=O)Nc1ccc(O)cc1", "note": "[3b, 2-[[2-(4-Hydroxyanilino)-2-oxo-ethyl]sulfamoyl]-N-methylbenzamide]", "values": [{"measurement": "hepatotoxicity (LDH release, reduced GSH), dose and time-dependent effect", "setting": "[2]", "result": "lack of hepatotoxicity"}, {"measurement": "mice alive after 48 h", "setting": "[3]", "result": 20, "unit": "mice"}, {"measurement": "H&E-stained liver sections", "setting": "[4]", "result": "healthy liver architecture was maintained"}, {"measurement": "apoptotic nuclei (TUNEL)", "setting": "[4]; mice", "result": "but not in 3b and 3r"}, {"measurement": "hepatic tight junctions (ZO-1 staining)", "setting": "[4]; mice", "result": "preserved"}, {"measurement": "LDH release", "setting": "[5]", "result": "consistently decreased"}, {"measurement": "liver function tests (ALT, AST, ALP) in serum", "setting": "[6]", "result": "marked reduction in LFTs"}, {"measurement": "amount of reduced GSH", "setting": "[7]", "result": "consistently increased"}, {"measurement": "NAPQI generation in serum", "setting": "[8]", "result": "did not result in the formation of NAPQI"}, {"measurement": "latency for withdrawal of the CFA-injected left hind foot", "setting": "[9]", "result": "increased"}]}, {"smiles": "CC(=O)Nc1ccc(O)cc1", "note": "[ApAP, N-Acetyl-4-aminophenol, reference compound]", "values": [{"measurement": "antipyretic effect", "setting": "[10]", "result": "effectively reduced fever"}, {"measurement": "H&E-stained liver sections", "setting": "[4]", "result": "centrilobular hepatic hemorrhagic necrosis"}, {"measurement": "apoptotic nuclei (TUNEL)", "setting": "[4]; mice", "result": "A large number of apoptotic nuclei"}, {"measurement": "hepatic tight junctions (ZO-1 staining)", "setting": "[4]; mice", "result": "Loss of hepatic tight junctions"}, {"measurement": "nitrotyrosine in liver (marker of mitochondrial free radical formation)", "setting": "[4]; toxic dose, mice", "result": "large amounts of nitrotyrosine"}, {"measurement": "serum creatinine (renal function)", "setting": "[6]", "result": "moderately elevated; also recorded: significantly high"}, {"measurement": "liver function tests (ALT, AST, ALP) in serum", "setting": "[6]", "result": "Increased levels; also recorded: significantly high"}, {"measurement": "NAPQI generation in serum", "setting": "[8]", "result": "detected NAPQI generation"}, {"measurement": "latency for withdrawal of the CFA-injected left hind foot", "setting": "[9]", "result": "increased"}]}, {"smiles": "O=C(CNS(=O)(=O)c1ccccc1C(=O)NCCc1ccc(O)c(O)c1)Nc1ccc(O)cc1", "note": "[3r, N-[2-(3,4-dihydroxyphenil)ethyl]-2-[[2-(4-hydroxyanilino)-2-oxo-ethyl]sulfamoyl] benzamide]", "values": [{"measurement": "inhibitory effects on CYP2D6", "setting": "[11]", "result": "only marginal inhibitory effects"}, {"measurement": "hepatotoxicity (LDH release, reduced GSH), dose and time-dependent effect", "setting": "[2]", "result": "lack of hepatotoxicity"}, {"measurement": "mice alive after 48 h", "setting": "[3]", "result": 20, "unit": "mice"}, {"measurement": "H&E-stained liver sections", "setting": "[4]", "result": "healthy liver architecture was maintained"}, {"measurement": "apoptotic nuclei (TUNEL)", "setting": "[4]; mice", "result": "but not in 3b and 3r"}, {"measurement": "hepatic tight junctions (ZO-1 staining)", "setting": "[4]; mice", "result": "preserved"}, {"measurement": "LDH release", "setting": "[5]", "result": "consistently decreased"}, {"measurement": "liver function tests (ALT, AST, ALP) in serum", "setting": "[6]", "result": "marked reduction in LFTs"}, {"measurement": "amount of reduced GSH", "setting": "[7]", "result": "consistently increased"}, {"measurement": "NAPQI generation in serum", "setting": "[8]", "result": "did not result in the formation of NAPQI"}, {"measurement": "latency for withdrawal of the CFA-injected left hind foot", "setting": "[9]", "result": "increased"}, {"measurement": "concentrations at which inhibition is noted", "setting": "[12]", "result": "> 1000", "unit": "nM"}]}]}
